Reference: patent publication US20200055839A1 (priority 2017, published 2020)

System: NL-RLuc virus
Assay: Inhibition of HIV replication (NL-RLuc virus, luciferase readout in MT-2 cells)
Type: cell-based
Conditions: Human immunodeficiency virus 1, MT2, 120 h, MT-2 cells infected with NL-RLuc virus, 5 days of incubation, 10% FBS, at least 2 experiments
Procedure, shortened: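 EC50 derived via median effect equation from at least 2 experiments, using luciferase expression as virus-growth readout. Replication-competent NL-RLuc reporter virus (nef partly replaced by Renilla luciferase) infected MT-2 cells with serial compound dilutions; 5-day incubation in RPMI 1640 plus 10% FBS.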

First: Cc1ncc(-c2cnc(O[C@H](C)c3ccccc3)c(F)c2)c(N2CCC(C)(C)CC2)c1[C@H](OC(C)(C)C)C(=O)O [Example 396, (2S)-2-(tert-butoxy)-2-[4-(4,4-dimethylpiperidin-1-yl)-5′-fluoro-6-methyl-6′-[(1R)-1-phenylethoxy]-[3,3′-bipyridine]-5-yl]acetic acid]
Second: Cc1ncc(-c2cnc(OC[C@@H](C)c3ccccc3)c(F)c2)c(N2CCC(C)(C)CC2)c1[C@H](OC(C)(C)C)C(=O)O [Example 388, (2S)-2-(tert-butoxy)-2-[4-(4,4-dimethylpiperidin-1-yl)-5′-fluoro-6-methyl-6′-[(2S)-2-phenylpropoxy]-[3,3′-bipyridine]-5-yl]acetic acid]
The EC50 of the first is 1.5-fold lower: 2 nM for the first, 3 nM for the second. The first is the more potent here.

Going from Cc1ncc(-c2ccc(OCCc3cccc(Cl)c3)cc2)c(N2CCC(C)(C)CC2)c1[C@H](OC(C)(C)C)C(=O)O [Example 364, (2S)-2-(tert-butoxy)-2-(5-{4-[2-(3-chlorophenyl)ethoxy]phenyl}-4-(4,4-dimethylpiperidin-1-yl)-2-methylpyridin-3-yl)acetic acid] to CCC(C)(C)O[C@H](C(=O)O)c1c(C)ncc(-c2ccc(OCCc3ccc(F)cc3)cc2)c1N1CCC(C)(C)CC1 [Example 18, (2S)-2-[4-(4,4-Dimethylpiperidin-1-yl)-5-{4-[2-(4-fluorophenyl)ethoxy]phenyl}-2-methylpyridin-3-yl]-2-[(2-methylbutan-2-yl)oxy]acetic acid], the EC50 rises from 2 nM to 4 nM (2-fold). The first is the more potent here.

First: Cc1ncc(-c2cnc(OCCc3c(F)cc(F)cc3F)c(F)c2)c(N2CCC(C)(C)CC2)c1[C@H](OC(C)(C)C)C(=O)O [Example 404, (2S)-2-(tert-butoxy)-2-[4-(4,4-dimethylpiperidin-1-yl)-5′-fluoro-6-methyl-6′-[2-(2,4,6-trifluorophenyl)ethoxy]-[3,3′-bipyridine]-5-yl]acetic acid]
Second: Cc1ncc(-c2cnc(OCCc3ccc(F)cc3)c(Cl)c2)c(N2CCC(C)(C)CC2)c1[C@H](OC(C)(C)C)C(=O)O [Example 250, (S)-2-(tert-Butoxy)-2-(5′-chloro-4-(4,4-dimethylpiperidin-1-yl)-6′-(4-fluorophenethoxy)-6-methyl-[3, 3′-bipyridin]-5-yl)acetic acid]
The EC50 of the first is 1.5-fold higher: 3 nM for the first, 2 nM for the second.

Going from Cc1ncc(-c2ccc(/C=C/C(C)C)nc2)c(N2CCC(C)(C)CC2)c1[C@H](OC(C)(C)C)C(=O)O [Example 421, (S,E)-2-(tert-Butoxy)-2-(4-(4,4-dimethylpiperidin-1-yl)-6-methyl-6′-(3-methylbut-1-en-1-yl)-[3, 3′-bipyridin]-5-yl)acetic acid] to Cc1ncc(-c2ccc([C@H](O)CC(C)C)nc2)c(N2CCC(C)(C)CC2)c1[C@H](OC(C)(C)C)C(=O)O [Example 433, (S)-2-tert-butoxy-2-(4-(4,4-dimethylpiperidin-1-yl)-6′-((R)-1-hydroxy-3-methylbutyl)-6-methyl-3,3′-bipyridin-5-yl)acetic acid], the EC50 rises from 8 nM to 25 nM (3.1-fold). The first is the more potent here.

First: COc1c(F)cc(-c2c(CN3CCC4(CCC4)CC3)nc(Cl)c([C@H](OC(C)(C)C)C(=O)O)c2N2CCC(C)(C)CC2)cc1F [Example 204]
Second: Cc1nc(CO)c(-c2ccc(OCCc3ccc(F)cc3)c(F)c2)c(N2CCC(C)(C)CC2)c1[C@H](OC(C)(C)C)C(=O)O [Example 230, (S)-2-(tert-Butoxy)-2-(4-(4,4-dimethylpiperidin-1-yl)-5-(3-fluoro-4-(4-fluorophenethoxy)phenyl)-6-(hydroxymethyl)-2-methylpyridin-3-yl)acetic acid]
The EC50 of the first is 3-fold lower: 1 nM for the first, 3 nM for the second. The first is the more potent here.

Going from Cc1ncc(-c2cccc(F)c2Cl)c(N2CCC(C)(C)CC2)c1[C@H](OC(C)(C)C)C(=O)O [Example 165, (2S)-2-(tert-Butoxy)-2-[5-(2-chloro-3-fluorophenyl)-4-(4,4-dimethylpiperidin-1-yl)-2-methylpyridin-3-yl]acetic acid] to COc1c(Cl)cccc1-c1cnc(C)c([C@H](OC(C)(C)C)C(=O)O)c1N1CCC(C)(C)CC1 [Example 152, (2S)-2-(tert-Butoxy)-2-[5-(3-chloro-2-methoxyphenyl)-4-(4,4-dimethylpiperidin-1-yl)-2-methylpyridin-3-yl]acetic acid], the EC50 rises from 8 nM to 60 nM (7.5-fold). The first is the more potent here.

CCOc1ccc(-c2cnc(C)c([C@H](OC(C)(C)C)C(=O)O)c2N2CCC(C)(C)CC2)c(F)c1F [Example 175, (2S)-2-(tert-Butoxy)-2-[4-(4,4-dimethylpiperidin-1-yl)-5-(4-ethoxy-2,3-difluorophenyl)-2-methylpyridin-3-yl]acetic acid] and Cc1ncc(-c2ccc(F)c(F)c2F)c(N2CCC(C)(C)CC2)c1[C@H](OC(C)(C)C)C(=O)O [Example 162, (2S)-2-(tert-Butoxy)-2-[4-(4,4-dimethylpiperidin-1-yl)-2-methyl-5-(2,3,4-trifluorophenyl)pyridin-3-yl]acetic acid] are within 1.5-fold of each other in EC50: 6 nM for the first, 7 nM for the second.

First: COc1cccc(COc2ccc(-c3cnc(C)c([C@H](OC(C)(C)C)C(=O)O)c3N3CCC(C)(C)CC3)nc2)c1 [Example 340, (2S)-2-(tert-butoxy)-2-[4′-(4,4-dimethylpiperidin-1-yl)-5-[(3-methoxyphenyl)methoxy]-6′-methyl-[2,3′-bipyridine]-5′-yl]acetic acid]
Second: COc1ccc(COc2ccc(-c3cnc(C)c([C@H](OC(C)(C)C)C(=O)O)c3N3CCC(C)(C)CC3)nc2)c(OC)c1 [Example 358, (2S)-2-(tert-butoxy)-2-{5-[(2,4-dimethoxyphenyl)methoxy]-4′-(4,4-dimethylpiperidin-1-yl)-6′-methyl-[2,3′-bipyridine]-5′-yl}acetic acid]
The EC50 of the first is 1.7-fold higher: 2 nM for the first, 1.2 nM for the second.

Cc1ncc(-c2ccc(OCCc3ccccc3F)c(F)c2)c(N2CCC(C)(C)CC2)c1[C@H](OC(C)(C)C)C(=O)O [Example 128, (S)-2-(tert-Butoxy)-2-(4-(4,4-dimethylpiperidin-1-yl)-5-(3-fluoro-4-(2-fluorophenethoxy)phenyl)-2-methylpyridin-3-yl)acetic acid] and Cc1ncc(-c2ccc(NCCc3ccc(F)cc3)nc2)c(N2CCC(C)(C)CC2)c1[C@H](OC(C)(C)C)C(=O)O [Example 110, (S)-2-(tert-Butoxy)-2-(4-(4,4-dimethylpiperidin-1-yl)-6′-((4-fluorophenethyl)amino)-6-methyl-[3, 3′-bipyridin]-5-yl)acetic acid] are the same in EC50: 2 nM for the first, 2 nM for the second.

First: COCCNc1nc(C)c([C@H](OC(C)(C)C)C(=O)O)c(N2CCC(C)(C)CC2)c1-c1ccc(OCCc2ccc(F)cc2)cc1 [Example 27, (S)-2-(tert-Butoxy)-2-(4-(4,4-dimethylpiperidin-1-yl)-5-(4-(4-fluorophenethoxy)phenyl)-6-((2-methoxyethyl)amino)-2-methylpyridin-3-yl)acetic acid]
Second: Cc1nc(NCCc2c[nH]cn2)c(-c2ccc(OCCc3ccc(F)cc3)cc2)c(N2CCC(C)(C)CC2)c1[C@H](OC(C)(C)C)C(=O)O [Example 32, (S)-2-(6-((2-(H-Imidazol-4-yl)ethyl)amino)-4-(4,4-dimethylpiperidin-1-yl)-5-(4-(4-fluorophenethoxy)phenyl)-2-methylpyridin-3-yl)-2-(tert-butoxy)acetic acid]
The EC50 of the first is 7.1-fold lower: 0.7 nM for the first, 5 nM for the second.

Compared with CC1(C)CCN(c2c(-c3ccc(CNc4ncnc5c4oc4ccccc45)c(F)c3)cnc(Cl)c2[C@H](OC(C)(C)C)C(=O)O)CC1 [Example 221, (S)-2-(5-(4-((Benzofuro[3,2-d]pyrimidin-4-ylamino)methyl)-3-fluorophenyl)-2-chloro-4-(4,4-dimethylpiperidin-1-yl)pyridin-3-yl)-2-(tert-butoxy)acetic acid], Cc1cccc(Cl)c1CCOc1ccc(-c2cnc(C)c([C@H](OC(C)(C)C)C(=O)O)c2N2CCC(C)(C)CC2)nc1 [Example 284, (S)-2-(tert-Butoxy)-2-(5-(2-chloro-6-methylphenethoxy)-4′-(4,4-dimethylpiperidin-1-yl)-6′-methyl-[2, 3′-bipyridin]-5′-yl)acetic acid] is 10-fold higher in EC50: 0.3 nM for the first, 3 nM for the second.

Going from Cc1cccc(-c2cnc(C)c([C@H](OC(C)(C)C)C(=O)O)c2N2CCC(C)(C)CC2)c1 [Example 177, (2S)-2-(tert-Butoxy)-2-[4-(4,4-dimethylpiperidin-1-yl)-2-methyl-5-(3-methylphenyl)pyridin-3-yl]acetic acid] to Cc1ncc(-c2ccc(O)cn2)c(N2CCC(C)(C)CC2)c1[C@H](OC(C)(C)C)C(=O)O [Example 287, (S)-2-(tert-Butoxy)-2-(4′-(4,4-dimethylpiperidin-1-yl)-5-hydroxy-6′-methyl-[2, 3′-bipyridin]-5′-yl)acetic acid], the EC50 rises from 12 nM to 379 nM (32-fold).

First: CCCCOc1ccc(-c2cnc(C)c([C@H](OC(C)(C)C)C(=O)O)c2N2CCC(C)(C)CC2)nc1 [Example 313, (2S)-2-(tert-butoxy)-2-[5-butoxy-4′-(4,4-dimethylpiperidin-1-yl)-6′-methyl-[2,3′-bipyridine]-5′-yl]acetic acid]
Second: CCCCCCCOc1ccc(-c2cnc(C)c([C@H](OC(C)(C)C)C(=O)O)c2N2CCC(C)(C)CC2)nc1 [Example 326, (2S)-2-(tert-butoxy)-2-[4′-(4,4-dimethylpiperidin-1-yl)-5-(heptyloxy)-6′-methyl-[2,3′-bipyridine]-5′-yl]acetic acid]
The EC50 of the first is 3-fold lower: 1 nM for the first, 3 nM for the second.

First: Cc1nc(NCCC2CCN(C)CC2)c(-c2ccc(OCCc3ccc(F)cc3)cc2)c(N2CCC(C)(C)CC2)c1[C@H](OC(C)(C)C)C(=O)O [Example 31, (S)-2-(tert-Butoxy)-2-(4-(4,4-dimethylpiperidin-1-yl)-5-(4-(4-fluorophenethoxy)phenyl)-2-methyl-6-((2-(1-methylpiperidin-4-yl)ethyl)amino)pyridin-3-yl)acetic acid]
Second: Cc1nc(C(=O)N[C@H]2CC[C@H](C)CC2)c(-c2ccc(OCCc3ccc(F)cc3)cc2)c(N2CCC(C)(C)CC2)c1[C@H](OC(C)(C)C)C(=O)O [Example 12, (S)-2-(tert-Butoxy)-2-(4-(4,4-dimethylpiperidin-1-yl)-5-(4-(4-fluorophenethoxy)phenyl)-2-methyl-6-(((1 r, 4S)-4-methylcyclohexyl)carbamoyl)pyridin-3-yl)acetic acid]
The EC50 of the first is 5-fold lower: 0.8 nM for the first, 4 nM for the second.
